The target of one experiment is T1, recombinant hSSAO (Homo sapiens, UniProt Q16853).
T1 sequence (Q16853 1-763): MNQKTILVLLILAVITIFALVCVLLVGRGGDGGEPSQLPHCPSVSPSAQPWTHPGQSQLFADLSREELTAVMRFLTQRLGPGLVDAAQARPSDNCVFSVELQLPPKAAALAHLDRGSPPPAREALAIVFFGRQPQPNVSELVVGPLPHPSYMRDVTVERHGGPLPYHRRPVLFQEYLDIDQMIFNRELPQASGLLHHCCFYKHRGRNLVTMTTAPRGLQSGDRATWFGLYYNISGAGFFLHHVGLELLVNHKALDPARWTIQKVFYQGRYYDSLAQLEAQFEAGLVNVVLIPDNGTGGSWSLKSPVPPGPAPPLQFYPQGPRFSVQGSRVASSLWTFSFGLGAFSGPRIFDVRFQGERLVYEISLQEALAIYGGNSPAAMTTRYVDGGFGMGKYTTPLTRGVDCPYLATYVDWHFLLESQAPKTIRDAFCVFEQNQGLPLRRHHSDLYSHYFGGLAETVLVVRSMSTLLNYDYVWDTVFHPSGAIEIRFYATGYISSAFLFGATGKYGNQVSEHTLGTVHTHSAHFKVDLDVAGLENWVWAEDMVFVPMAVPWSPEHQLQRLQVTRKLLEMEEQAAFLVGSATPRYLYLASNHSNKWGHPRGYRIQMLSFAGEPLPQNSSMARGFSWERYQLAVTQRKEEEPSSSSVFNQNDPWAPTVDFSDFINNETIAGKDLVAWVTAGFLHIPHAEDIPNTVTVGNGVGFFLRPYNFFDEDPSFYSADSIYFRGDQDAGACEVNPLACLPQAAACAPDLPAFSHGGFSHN
Description: SSAO/VAP-1 in vitro amine oxidase activity, MAO-Glo assay. In kind it is biochemical. Particulars: mean±standard deviation, n=5; substrate 10 μM, pH 7.4; read-out: hSSAO inhibition IC50. On the procedure: Amine oxidase activity of recombinant hSSAO, hMAOa, and hMAOb isoforms are measured using the MAO-Glo™ assay kit from Promega (V1402). Test compounds (with DMSO as vehicle, 0.5% v/v for SSAO) and the enzyme are incubated for 10 mins at room temperature before the addition of the luminogenic substrate. The substrate concentration is 10 μM for human recombinant SSAO. The assays are conducted in a pH 7.4 buffer (50 mM HEPES, 120 mM NaCl, 5 mM KCl, 2 mM CaCl2, 1.4 mM MgCl2, 0.001% Tween-20) in a well-plate. Oxidation of the substrate is conducted for 2 hrs before the addition of detecting reagent according the manufacture's protocol. The IC50 value of the tested compounds is calculated by fitting the dose response curve using a 4-parameter non-linear regression routine.

Another experiment concerns SSAO. Description: SSAO Target Engagement: residual SSAO activity in rat plasma and liver after dosing. In kind it is in vivo. Particulars: for SSAO Activity (%) Liver 24 hours / SSAO Activity (%) Plasma 2 hours / SSAO Activity (%) Plasma 24 hours: mean ± SEM, n = 6. Here is the method: The SSAO activity in rat plasma and liver tissues are measured using the MAO-Glo™ assay kit from Promega (V1402). The residual SSAO activity in rats after compound treatment is estimated by measuring the total amine oxidase activity in plasma or liver lysates that are insensitive to the presence of the MAO inhibitor Clogyline and Pargyline. Rats are administered the compound of Example 1 at the doses of 15, 3, 0.6, 0.12, 0.025, 0.005 mg/kg. The control group is administered with the same volume (2 ml/kg) of the dosing vehicle (hydroxyethyl cellulose 1% w/v, 0.25% Tween 80). Plasma and liver at 2 or 24 hrs post compound treatment are harvested and stored at −78° C. until analysis. Tissue lysates are prepared by homogenization in a lysis buffer (20 mM HEPES, pH 7.4, 150 mM NaCl, 1 mM EDTA, 1 mM EGTA, 1% Triton X-100 and 1× Roche Complete protease inhibitor tablet). Tissue particles are removed by centrifugation at 12,000 rpm at 4° C. for 30 min. 40 μl of plasma or liver lysates is incubated with Clogyline (10 μM) and Pargyline (10 μM) for 20 min. at room temperature before the addition of the luminogenic substrate (50 μM) for 60 min. The product generated is quantified according to the manufacture's procedure. The fraction of activity that is insensitive to the presence of the MAO inhibitors is used as the surrogate for the residual SSAO activity. The compound of Example 1 is evaluated in the protocol essentially as described above administered at various doses.

The structures appear in SMILES notation.

By IC50 is commonly meant the midpoint of a concentration-inhibition curve.

As for `CN1CCC2(CCN(c3ncc(OC/C(=C/F)CN)cn3)CC2)C1=O.Cl.Cl` [Example 1, 8-[5-[(E)-2-(Aminomethyl)-3-fluoro-allyloxy]pyrimidin-2-yl]-2-methyl-2,8-diazaspiro[4.5]decan-1-one Dihydrochloride], at recombinant hSSAO, the half-maximal inhibitory concentration (IC50) amounted to 19.4 ± 5.68 nM. Besides, the “SSAO Activity (%) Liver 24 hours” value was 79 ± 13% with SSAO (dose 0.005 mg/kg); 59 ± 14% in the experiment with SSAO (dose 0.025 mg/kg); 28 ± 5% with SSAO (dose 0.12 mg/kg); 24 ± 6% with SSAO (dose 0.6 mg/kg); 6 ± 4% in the experiment with SSAO (dose 3 mg/kg); −0.63 ± 1.1% in the experiment on SSAO (dose 15 mg/kg). For the same molecule, the “SSAO Activity (%) Plasma 2 hours” value with SSAO (dose 0.005 mg/kg) was found to be 76 ± 3%; in the experiment with SSAO (dose 0.025 mg/kg), 35 ± 4%; with SSAO (dose 0.12 mg/kg) it was 17 ± 1%; with SSAO (dose 0.6 mg/kg), 13.4 ± 2.4%; in the experiment on SSAO (dose 3 mg/kg) it was 5.9 ± 1.6%; with SSAO (dose 15 mg/kg), 3.1 ± 0.9%. Further, the “SSAO Activity (%) Plasma 24 hours” value came out at 81 ± 4% in the experiment on SSAO (dose 0.005 mg/kg); 67 ± 10% with SSAO (dose 0.025 mg/kg); 39 ± 4% with SSAO (dose 0.12 mg/kg); 31 ± 3% in the experiment on SSAO (dose 0.6 mg/kg); 19 ± 2% in the experiment on SSAO (dose 3 mg/kg); 14 ± 1% in the experiment on SSAO (dose 15 mg/kg). In addition, the “inhibition of SSAO activity in rat plasma and liver tissue (in words)” value in the experiment with SSAO (doses 0.005 to 15 mg/kg) is “dose-dependently inhibits SSAO activity”.

For the origin of these results see patent US10471060B2, “Amino pyrimidine compounds useful as SSAO inhibitors” (Eli Lilly and Company, priority 2017, dated 2019).
